The compounds below were run on cutaneous histamine induced anaphylactoid reactions (assay: inhibition of the anaphylactoid cutaneous reaction induced by histamine). Details: Rattus norvegicus, po, 0.5 h; 2 × 10^-5 mole/kg p.o., one hour before histamine; assessed 30 minutes after provocation; read-out: Inhibitory action against cutaneous histamine induced anaphylactoid reactions in rats, % inhibition.
Assay type: in vivo, Sprague-Dawley rats
Description: 1. Determination of the inhibition of the anaphylactoid cutaneous reaction induced by histamine.
The inhibition of the anaphylactoid cutaneous reaction induced by histamine was determined in Sprague-Dawley rats having body weights of 150-180 g.
In order to determine the histamine-induced anaphylactoid skin reaction, 50 μl of a physiological saline solution containing 0.8 mg/ml of histamine were injected into the animals intradermally on one flank. Immediately afterward, a solution of 26.4 mg/kg of a blue dye (Evan's Blue) was administered i.v. to the animals.
The test substances were dissolved in distilled water which contains 1% by volume of dimethylformamide and 1% by volume of Tween®20 (=polyoxyethylene(20) sorbitan monolaurate). One hour before the histamine injection, each animal received 2×10^-5 mol/kg of test substance, in each case administered orally in 0.5 ml of solution. A control group received only the solvent for comparison.
The histamine-induced anaphylactoid reactions which manifested themselves by edema formation, swelling and exudation of blue dye are assessed 30 minutes after provocation by the histamine injection. This is carried out by visual determination of the extent of the exudation of blue dye at the sites of edema formation. With the aid of comparison scales, the percentage inhibition of the anaphylactoid reactions produced by the test substances is determined in comparison with the reactions of the control animals not treated with test substance.
The results obtained with compounds of the formula I by the above test method are reproduced in the following table A. The example numbers given as identifiers for the compounds of formula I refer to the subsequent preparative examples.

Q: With `Cc1ccnc(N2CCN(CCC3Cn4c(-c5cc(C)c(O)c(C)c5)c(C)c5cc(F)cc(c54)O3)CC2)c1` (stereo not shown) [Example 42] as the compound, how does the inhibition in vivo at 20 µmol/kg read?
A: 36%

Q: With `COc1cc(-c2c(C)c3cccc4c3n2CC(CCC(=O)N2CCN(c3ccc(C)cn3)CC2)O4)ccc1O` (stereo not shown) [Example 39] as the compound, how does the inhibition in vivo at 20 µmol/kg read?
A: 32%

Q: How did the inhibition in vivo at 20 µmol/kg turn out when `Cc1ccnc(N2CCN(CCCC3Cn4c(-c5cc(C)c(O)c(C)c5)c(C)c5c(F)ccc(c54)O3)CC2)c1` (stereo not shown) [Example 29] was run?
A: 46%

Q: Which inhibition in vivo at 20 µmol/kg does the source give for `Cc1ccnc(N2CCN(C(=O)CCC3Cn4c(-c5ccc(O)cc5)c(C)c5cccc(c54)O3)CC2)c1` (stereo not shown) [Example 15] here?
A: 32%

Q: With `Cc1ccnc(N2CCN(CCC3Cn4c(-c5cc(C)c(O)c(C)c5)c(C)c5cc(O)cc(c54)O3)CC2)c1` (stereo not shown) [Example 44] as the compound, how does the inhibition in vivo at 20 µmol/kg read?
A: 37%

Q: Which inhibition in vivo at 20 µmol/kg does the source give for `Cc1ccnc(N2CCN(C(=O)CCC3Cn4c(-c5cc(C)c(O)c(C)c5)c(C)c5cccc(c54)O3)CC2)c1` (stereo not shown) [Example 25] here?
A: 30%

Q: `COc1cc2c3c(c1)c(C)c(-c1cc(C)c(O)c(C)c1)n3CC(CCN1CCN(c3cc(C)ccn3)CC1)O2` (stereo not shown) [Example 43] was tested. Which inhibition in vivo at 20 µmol/kg did it give?
A: 32%

Q: `Cc1cc(-c2c(C)c3c(F)ccc4c3n2CC(CCN2CCN(c3ccccn3)CC2)O4)cc(C)c1O` (stereo not shown) [Example 27] was tested. Which inhibition in vivo at 20 µmol/kg did it give?
A: 55%

Each compound was assayed against T1, 5-lipoxygenase (Homo sapiens, UniProt P09917) (assay: 5-lipoxygenase inhibition in human blood (LTB4 formation)). Details: 0.5 h; 10^-5 mole/liter; human whole blood, 37° C.; read-out: In vitro % inhibitory activity on LTB4 formation in human blood stimulated by calcimycin.
T1 construct: the 5-LO activity in human whole blood; from tissue; host or cells: heparinized human whole blood
T1 sequence (P09917 1-674): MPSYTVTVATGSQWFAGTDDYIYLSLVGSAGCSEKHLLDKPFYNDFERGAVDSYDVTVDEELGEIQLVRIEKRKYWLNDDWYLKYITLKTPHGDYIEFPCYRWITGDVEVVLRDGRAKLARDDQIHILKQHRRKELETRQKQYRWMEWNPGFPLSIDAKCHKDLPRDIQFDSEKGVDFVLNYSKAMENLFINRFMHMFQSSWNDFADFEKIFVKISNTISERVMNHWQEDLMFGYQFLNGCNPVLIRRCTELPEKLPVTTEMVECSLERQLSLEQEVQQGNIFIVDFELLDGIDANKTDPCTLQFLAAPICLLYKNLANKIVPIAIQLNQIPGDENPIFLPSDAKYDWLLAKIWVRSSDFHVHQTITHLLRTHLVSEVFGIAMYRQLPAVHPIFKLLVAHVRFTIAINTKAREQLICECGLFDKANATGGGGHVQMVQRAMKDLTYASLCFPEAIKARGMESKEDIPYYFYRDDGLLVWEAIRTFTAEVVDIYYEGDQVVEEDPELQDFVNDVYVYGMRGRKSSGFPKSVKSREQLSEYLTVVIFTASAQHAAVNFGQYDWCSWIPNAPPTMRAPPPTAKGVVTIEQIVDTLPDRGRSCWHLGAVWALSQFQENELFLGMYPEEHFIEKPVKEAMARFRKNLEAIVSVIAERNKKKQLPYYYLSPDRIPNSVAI
Assay type: cell-based
Description: 4c. In vitro determination of 5-lipoxygenase inhibition in human blood.
The inhibitory activity of the test substances on the 5-LO activity in human whole blood taking place after stimulation by calcimycin is investigated according to the method described by P. Gresele et al. (Biochem. Biophys. Commun. 137 (1986), 334).
For carrying out the test, human blood is collected in sterile 50 ml test tubes which contain 10 units of heparin/ml of blood and incubated for 5-10 minutes at 37° C. Amounts of test substance, dissolved in 10 μl of dimethylformamide, are added to 2 ml samples of this blood such that a final concentration of test substance of 10 μmol/l is achieved in the samples. Only 10 μl of the solvent were added to control samples. The samples were then incubated for 10 minutes at 37° C. In order to stimulate LTB4 synthesis, an amount of calcimycin, dissolved in 200 μl of plasma, was added to the samples such that a calcimycin concentration of 60 μmol/l was achieved, and the samples were incubated for a further 30 minutes at 37° C. The reaction was then terminated by addition of 200 μl of an ethylene glycol tetraacetate solution (corresponding to an ethylene glycol acetate concentration in the sample of 100 mmol/l). The samples are kept in an ice-bath for 10 minutes and then centrifuged (5 minutes at 1000×g). The supernantant liquids, which contain the LTB4 formed during the reaction time, are each separated and, for precipitation of the proteins contained therein, mixed with 3 ml of acetone and kept for 45 minutes at 4° C. Then the samples are centrifuged again (5 minutes at 1500×g), the supernatant liquids are separated, and the content of LTB4 therein is determined in a known manner by means of an enzyme immunoassay (=EIA). From the measured LTB4 values, the inhibitory activity of the test substances in human whole blood was calculated in % inhibition of LTB4 synthesis in comparison to the control samples containing no test substance.

Q: `Cc1cccnc1N1CCN(CCCC2Cn3c(-c4cc(C)c(O)c(C)c4)c(C)c4c(O)ccc(c43)O2)CC1` (stereo not shown) [Example 74] was tested. Which inhibition at 10 µM did it give?
A: 100%

Q: `Cc1ccnc(N2CCN(C(=O)CCC3Cn4c(-c5ccc(O)cc5)c(C)c5c(O)ccc(c54)O3)CC2)c1` (stereo not shown) [Example 69] was tested. Which inhibition at 10 µM did it give?
A: 95%

Q: For `Cc1cc(-c2c(C)c3c(O)ccc4c3n2CC(CCC(=O)N2CCN(c3ccccn3)CC2)O4)cc(C)c1O` (stereo not shown) [Example 71], which inhibition at 10 µM is on record?
A: 100%

Q: Which inhibition at 10 µM does the source give for `Cc1ccnc(N2CCN(C(=O)CCC3Cn4c(-c5cc(C)c(O)c(C)c5)c(C)c5c(O)ccc(c54)O3)CC2)c1` (stereo not shown) [Example 67] here?
A: 100%

Q: `Cc1ccnc(N2CCN(CCCC3Cn4c(-c5cc(C)c(O)c(C)c5)c(C)c5c(O)ccc(c54)O3)CC2)c1` (stereo not shown) [Example 73] was tested. Which inhibition at 10 µM did it give?
A: 100%

Q: How did the inhibition at 10 µM turn out when `COc1cc(-c2c(C)c3c(O)ccc4c3n2CC(CCC(=O)N2CCN(c3ccccn3)CC2)O4)cc(C)c1O` (stereo not shown) [Example 72] was run?
A: 95%

Q: How did the inhibition at 10 µM turn out when `Cc1cc(-c2c(C)c3c(OCc4ccccc4)ccc4c3n2CC(CCC(=O)N2CCN(c3ccccn3)CC2)O4)cc(C)c1O` (stereo not shown) [Example 75] was run?
A: 96%

Q: For `Cc1ccnc(N2CCN(CCC3Cn4c(-c5ccc(O)cc5)c(C)c5c(O)ccc(c54)O3)CC2)c1` (stereo not shown) [Example 4, 2,3-Dihydro-7-hydroxy-5-(4-hydroxyphenyl)-6-methyl-2-[2-(4-(4-methylpyridin-2-yl)piperazin-1-yl)ethyl]pyrrolo[1,2,3-de]-1,4-benzoxazine], which inhibition at 10 µM is on record?
A: 86%
